Measurements published in patent publication US20090155245A1, “Treatment for Organ Regeneration with Combination of Drug and Biologics” (priority 2007, published 2009).
“Also recorded” adds a separate entry of the source.

Key:
5/6 nephrectomy rats = assay: 5/6 nephrectomy (Nx) rat study of chronic renal failure; assay type: in vivo, rat (inbred Lewis); conditions: 5/6 Nx rats, rhGDF-5 50 μg/kg ip 3 times per week
Experimental: Both sham and 5/6 Nx performed rats were treated 4 weeks post surgery with different reagents as indicated. The effects of the treatment were analyzed every two weeks through blood and urine sample analysis consisting of hematology, serum and urine chemistry and proteinuria. After 10 weeks of treatment, kidney samples were taken from the right kidney and evaluated using histopathology for glomerulorsclerosis, interstitial fibrosis and tubular degemation. All the data were converted to a weighted ranking system from 1 to 10 and averaged for the 10 weeks. A better efficacy from a treatment receives a higher score and the maximum score is the level for sham group. […]
rhGDF-5 was administrated 3 times per week at 50 μg/kg by ip. […] Effects of these treatments on kidney function was evaluated every two weeks by monitoring clinical observations, body weights, urine volume and duration of collection, and clinical pathology parameters through blood and urine sample analysis (hematology, serum chemistry, and urine chemistry). Residual urine samples were also evaluated for protein levels, beginning on Day 28, by AniLytics, Inc. On Day 70, surviving animals were euthanized and subjected to a limited necropsy, consisting of collection of the right kidney (2 sham groups) or the remaining third of the right kidney (all the Nx groups). […]

UUO induced renal injury = assay: Unilateral Ureter Obstruction (UUO) model, H&E histology renal injury scoring; assay type: in vivo, mice (C57BL/6); conditions: UUO mice, 12 days of treatment, vs vehicle; rhGDF-5 300 μg/kg ip 3x/week, SD282 60 mg/kg gavage twice daily
Source text: The theraputic effects of rhGDF-5 was further tested along with SD282 in Unilateral Ureter Obstruction Model (UUO) in the present invention. Mice were subjected to unilateral ureter obstruction and treatment started on the same day as the UUO surgery. After 12 days of treatment, the obstructed kidneys were harvested for Hematoxylin and Eosin (H&E) staining and RT-PCR analysis. […] CCL2 induces recruitment of monocytes, T lymphocytes, eosinophils, and basophils and is responsible for many inflammatory reactions to disease, and has been linked to recruitment of osteoclast precursors. PDGF plays a role in embryonic development, cell proliferation, cell migration, and angiogenesis. […] The efficacy of rhGDF-5 was further tested along with SD282 in a mouse UUO model. Treatment started on the same day of the UUO, and included rhGDF-5 and SD282. At the end of the 12-day treatment, histology scoring and gene expression analysis was preformed on endpoint measurements. Unilateral Ureter Obstruction Model (“UUO”) was used because it is a commonly used mouse model for progressive tubulointerstitial fibrosis in the kidney. Male C57BL/6 mice were purchased at age 6 to 8 weeks from Jackson Labs (Bar Harbor, Me.). They were housed in an animal facility that was maintained at 25° C. with a 12-hour light-dark cycle. […]

[1] = tested on: chemokine ligand 2 (CCL2) gene expression; assay: UUO model, RT-PCR gene expression analysis of obstructed kidney (CCL2); assay type: in vivo, mice (C57BL/6); conditions: UUO mice, 12 days of treatment, vs controls
Source text: (§1) The theraputic effects of rhGDF-5 was further tested along with SD282 in Unilateral Ureter Obstruction Model (UUO) in the present invention. Mice were subjected to unilateral ureter obstruction and treatment started on the same day as the UUO surgery. After 12 days of treatment, the obstructed kidneys were harvested for Hematoxylin and Eosin (H&E) staining and RT-PCR analysis. […] CCL2 induces recruitment of monocytes, T lymphocytes, eosinophils, and basophils and is responsible for many inflammatory reactions to disease, and has been linked to recruitment of osteoclast precursors. PDGF plays a role in embryonic development, cell proliferation, cell migration, and angiogenesis.
(§2) The efficacy of rhGDF-5 was further tested along with SD282 in a mouse UUO model. Treatment started on the same day of the UUO, and included rhGDF-5 and SD282. At the end of the 12-day treatment, histology scoring and gene expression analysis was preformed on endpoint measurements.
(§3) Experimental animals were treated with rhGDF-5, 3 times per week, via ip injection at 300 μg/kg and SD282, twice, daily through gavage at 60 mg/kg dissolved in 0.5% methylcellulose. Control mice received an equal volume of 0.5% methylcellulose vehicle. Treatment dose was selected based on a review of the literature and represented the highest dose that was free of side effects in other experimental studies. […]

[2] = tested on: platelet-derived growth factor (PDGF) gene expression; assay: UUO model, RT-PCR gene expression analysis of obstructed kidney (PDGF); assay type: in vivo, mice (C57BL/6); conditions: UUO mice, 12 days of treatment, vs controls
Source text: as §1, §2, §3

diabetic rats = assay: Streptozotocin-induced diabetic nephropathy rat model; assay type: in vivo; conditions: rhGDF-5 300 μg/kg ip 3x per week
Experimental: The efficacy of the combination therapy was tested in a diabetic nephropathy rat model.
Diabetic condition in the animals was induced for 1 week by a single i.v. injection of Streptozotocin. Subsequently, the animals were treated for 14 weeks with or without 300 μg/kg rhGDF-5 (i.p., 3× per week), 10 mg/kg of Enalapril (gavage, once daily), or a combination of the two.
Blood glucose measurements and subcutaneous insulin administrations (as necessary) were carried out thrice weekly to maintain a glucose level between 280 and 400 mg/dL. Urine samples were collected every two weeks; blood samples collected every four weeks for measuring level of urine microalbumin, serum creatinine, blood urea nitrogen, and urine creatinine. On week fourteen, a final set of samples was collected; then the animals were euthanized and subjected to a limited necropsy involving the collection of the kidneys. One kidney from each animal was flash frozen for gene expression analysis as needed and the other preserved in 10% neutral buffered formalin, after which it was examined microscopically.
Histological examination was performed on the kidneys. […] Slides were evaluated on the basis of morphologic changes according to the following grading scheme: 0=within normal limits; 1=minimal; 2=mild; 3=moderate. All microscopic slides were evaluated and gross and microscopic findings were reported.

## rhGDF-5: recombinant human Growth and Differentiation factor-5, a protein belonging to the TGF-β superfamily (morphogen)
5/6 nephrectomy rats
  blood urea nitrogen levels: some effect on reducing blood urea nitrogen levels
UUO induced renal injury
  renal injury score (histology scoring, H&E): reduced renal structural damage; also recorded: reduced renal injury score
[1]
  CCL2 gene expression: decreased expression of CCL2; also recorded: prevents chemokine ligand 2 (CCL2)
[2]
  PDGF gene expression: decreased expression; also recorded: prevents
Diabetic rats
  urine microalbumin / protein level in urine: comparable efficacy on reducing urine micro albumine level; also recorded: comparable effect on reducing protein level in urine
